Experimental data taken from ChEMBL document CHEMBL1140283, “Novel, potent small-molecule inhibitors of the molecular chaperone Hsp90 discovered through structure-based design” (J Med Chem, 2005).

How the values were obtained:
HCT-116 [1] = assay: Inhibitory concentration against cell proliferation of human HCT116 cell; format: functional
[2] = target: ATP-dependent molecular chaperone HSC82 (Saccharomyces cerevisiae S288c, UniProt P15108); assay: Inhibitory concentration against ATPase activity of Hsp90 of Saccharomyces cerevisiae was determined by ATPase activity assay
ATP-dependent molecular chaperone HSC82, sequence (P15108 whole entry): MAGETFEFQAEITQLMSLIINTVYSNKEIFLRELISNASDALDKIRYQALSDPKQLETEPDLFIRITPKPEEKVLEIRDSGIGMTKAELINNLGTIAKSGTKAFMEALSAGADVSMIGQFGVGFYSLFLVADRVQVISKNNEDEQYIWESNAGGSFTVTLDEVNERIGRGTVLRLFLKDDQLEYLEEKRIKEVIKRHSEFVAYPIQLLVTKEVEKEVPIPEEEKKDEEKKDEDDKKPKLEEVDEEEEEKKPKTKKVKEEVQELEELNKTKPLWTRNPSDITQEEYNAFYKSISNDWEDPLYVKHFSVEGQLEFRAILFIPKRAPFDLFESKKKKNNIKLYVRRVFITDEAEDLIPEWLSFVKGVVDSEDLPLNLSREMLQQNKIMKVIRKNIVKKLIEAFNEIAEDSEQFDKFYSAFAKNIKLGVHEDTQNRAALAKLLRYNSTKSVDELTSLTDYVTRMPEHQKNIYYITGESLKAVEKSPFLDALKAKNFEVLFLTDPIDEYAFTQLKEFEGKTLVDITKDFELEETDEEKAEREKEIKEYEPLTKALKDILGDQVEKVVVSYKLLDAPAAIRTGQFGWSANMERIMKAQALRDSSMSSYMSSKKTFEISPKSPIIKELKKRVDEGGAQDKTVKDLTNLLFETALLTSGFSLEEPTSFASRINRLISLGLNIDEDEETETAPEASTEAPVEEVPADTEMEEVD

[3] = target: Heat shock protein HSP 90-alpha (Homo sapiens, UniProt P07900); assay: Inhibitory concentration against activity of Hsp90 was determined by fluorescence polarization (FP) assay
HCT-116 [4] = assay: Inhibitory concentration against cell proliferation of human HCT116 cells; format: functional
[5] = Homo sapiens, HCT-116, read-out: GI50

SMILES	GI50 (HCT-116 [1]) [µM]	IC50 [2] [µM]	IC50 [3] [µM]	GI50 (HCT-116 [4]; [5]) [µM]	GI50 (HCT-116 [4]) [µM]
C[C@@H]1C[C@H]2O[C@@H]2/C=C\C=C\C(=O)Cc2c(Cl)c(O)cc(O)c2C(=O)O1 [RADICICOL]	0.13	0.2			
CNC(=O)c1[nH]nc(-c2cc(Cl)c(O)cc2O)c1-c1ccc(OC)cc1		0.11	0.039	0.68	
COc1ccc(-c2c(C)n[nH]c2-c2cc(Cl)c(O)cc2O)cc1		1.7	0.15	6.7	
Cc1[nH]nc(-c2cc(Cl)c(O)cc2O)c1-c1ccc2c(c1)OCCO2		0.65		14.9	
COc1ccc(-c2c(C)n[nH]c2-c2cc(Br)c(O)cc2O)cc1		1.9	0.062	6.1	
CCNC(=O)c1[nH]nc(-c2cc(Cl)c(O)cc2O)c1-c1ccc(OC)cc1		0.14			
Cc1n[nH]c(-c2ccc(O)cc2O)c1-c1ccc2c(c1)OCCO2		23	4.73	34.8	
CCc1cc(-c2n[nH]c(C)c2-c2ccc3c(c2)OCCO3)c(O)cc1O		5.7		5.8	
COc1ccc(-c2c(-c3ccc(O)cc3O)n[nH]c2C)cc1		36.9		33.3	
CCNC(=O)c1[nH]nc(-c2cc(Br)c(O)cc2O)c1-c1ccc(OC)cc1		0.39		0.938	
COc1ccc(-c2c(-c3cc(Cl)c(O)cc3O)n[nH]c2C(=O)O)cc1		2.3	0.51		> 80
C=CCNC1=C2C[C@@H](C)C[C@H](OC)[C@H](O)[C@@H](C)/C=C(\C)[C@H](OC(N)=O)[C@@H](OC)/C=C\C=C(/C)C(=O)NC(=CC1=O)C2=O [TANESPIMYCIN]	0.16	13.4			
COc1ccc(-c2c(-c3cc(Cl)c(O)cc3O)n[nH]c2C(=O)NC(C)C)cc1		1.5	0.12	1.9	
COc1ccc(-c2c(-c3cc(Cl)c(O)cc3O)n[nH]c2C(N)=O)cc1		0.42	0.053	1.1	
